This is an account of results in US20240217957A1, “HETEROCYCLIC COMPOUND AND USE THEREOF” (TAKEDA PHARMACEUTICAL COMPANY LIMITED, priority 2022, published 2024).

In the experiment the target is T1, human OX2 receptor (Homo sapiens, UniProt O43614).
T1 construct: expressed in transfected cells
T1 sequence (O43614 1-444): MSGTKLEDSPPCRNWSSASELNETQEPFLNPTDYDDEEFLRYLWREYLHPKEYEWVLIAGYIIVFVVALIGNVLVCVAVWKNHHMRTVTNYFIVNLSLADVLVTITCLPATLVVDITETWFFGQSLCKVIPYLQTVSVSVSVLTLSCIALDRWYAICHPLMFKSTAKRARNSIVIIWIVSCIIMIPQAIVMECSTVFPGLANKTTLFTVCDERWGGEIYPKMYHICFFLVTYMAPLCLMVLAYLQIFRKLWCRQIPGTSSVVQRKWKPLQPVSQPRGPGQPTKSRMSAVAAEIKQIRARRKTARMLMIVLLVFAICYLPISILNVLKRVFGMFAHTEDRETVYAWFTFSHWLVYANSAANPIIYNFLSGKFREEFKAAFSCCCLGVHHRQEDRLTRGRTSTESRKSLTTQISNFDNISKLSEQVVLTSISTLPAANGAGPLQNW
Briefly: Measurement of orexin type 2 receptor agonist activity (calcium fluorescence, Fluo-4 AM, FDSS). Type of experiment: cell-based. Conditions: compound at 3 μM; CHO cells forcibly expressing human OX2 receptor; DMSO = 0%, 10 nM orexin A (human) = 100%. In a few lines:
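CHO-K1 cells stably expressing human OX2 receptor (residues 1-444) loaded with Fluo-4 AM in HBSS/20 mM HEPES/0.1% BSA with probenecid, 30 min at 37° C. then 30 min at room temperature. After compound addition, calcium fluorescence read for 1 min 40 s; activity (%) scaled to DMSO (0%) and 10 nM orexin A (100%).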

Each structure is given as a SMILES string.

With `CCS(=O)(=O)N[C@@H]1CN(C2=NOC(COC)(c3ncc(F)cc3-c3c(F)cccc3F)C2)C[C@@H]1F` (stereo partly drawn) [Example 132, N-[(3R,4S)-1-{5-[3-(2,6-difluorophenyl)-5-fluoropyridin-2-yl]-5-(methoxymethyl)-4,5-dihydro-1,2-oxazol-3-yl}-4-fluoropyrrolidin-3-yl]ethanesulfonamide], the “OX2R agonist activity (3 μM, %)” value is 110%.
For the compound `CCS(=O)(=O)N[C@@H]1CN(C2=NOC(c3ncc(Cl)cc3-c3c(F)cccc3F)C2)C[C@@H]1F` (stereo partly drawn) [Example 133, N-[(3R,4S)-1-{5-[5-chloro-3-(2,6-difluorophenyl)pyridin-2-yl]-4,5-dihydro-1,2-oxazol-3-yl}-4-fluoropyrrolidin-3-yl]ethanesulfonamide], the “OX2R agonist activity (3 μM, %)” value is given as 107%.
With `Cc1ncc(C2CC(N3C[C@@H](NS(C)(=O)=O)C(F)(F)C3)=NO2)c(-c2c(F)cccc2F)n1` (stereo partly drawn) [Example 134, N-[(3R)-1-{5-[4-(2,6-difluorophenyl)-2-methylpyrimidin-5-yl]-4,5-dihydro-1,2-oxazol-3-yl}-4,4-difluoropyrrolidin-3-yl]methanesulfonamide] the figure was 103%; with `CS(=O)(=O)N[C@@H]1CN(C2=NOC(CO)(c3ncc(C(F)F)cc3-c3c(F)cccc3F)C2)CC1(F)F` (stereo partly drawn) [Example 135, N-[(3R)-1-{5-[5-(difluoromethyl)-3-(2,6-difluorophenyl)pyridin-2-yl]-5-(hydroxymethyl)-4,5-dihydro-1,2-oxazol-3-yl}-4,4-difluoropyrrolidin-3-yl]methanesulfonamide], 115%; with `CS(=O)(=O)N[C@@H]1CN(C2=NOC(c3c(F)ccc(F)c3-c3c(F)cccc3F)C2)CC1(F)F` (stereo partly drawn) [Example 136, N-{(3R)-4,4-difluoro-1-[5-(2′,3,6,6′-tetrafluoro[1,1'-biphenyl]-2-yl)-4,5-dihydro-1,2-oxazol-3-yl]pyrrolidin-3-yl}methanesulfonamide], 114%.
With `CS(=O)(=O)N[C@@H]1CN(C2=NOC(c3ccc(F)c(F)c3-c3c(F)cccc3F)C2)C[C@@H]1F` (stereo partly drawn) [Example 137, N-{(3R,4S)-4-fluoro-1-[5-(2′,5,6,6′-tetrafluoro[1,1′-biphenyl]-2-yl)-4,5-dihydro-1,2-oxazol-3-yl]pyrrolidin-3-yl}methanesulfonamide] the figure was 102%.
Take `CS(=O)(=O)N[C@@H]1CN(C2=NOC(c3c(F)cc(F)cc3-c3ncc(F)cc3F)C2)CC1(F)F` (stereo partly drawn) [Example 138, N-[(3R)-1-{5-[2-(3,5-difluoropyridin-2-yl)-4,6-difluorophenyl]-4,5-dihydro-1,2-oxazol-3-yl}-4,4-difluoropyrrolidin-3-yl]methanesulfonamide]: the “OX2R agonist activity (3 μM, %)” value stood at 105%.
The result for `CS(=O)(=O)N[C@@H]1CN(C2=NOC(c3c(F)cc(F)cc3-c3ncc(F)cc3F)C2)C[C@@H]1F` (stereo partly drawn) [Example 139, N-[(3R,4S)-1-{5-[2-(3,5-difluoropyridin-2-yl)-4,6-difluorophenyl]-4,5-dihydro-1,2-oxazol-3-yl}-4-fluoropyrrolidin-3-yl]methanesulfonamide] reads 94%; that for `CS(=O)(=O)N[C@@H]1CN(C2=NOC(c3ccc(F)c(F)c3-c3c(F)cccc3F)C2)CC1(F)F` (stereo partly drawn) [Example 140, N-{(3R)-4,4-difluoro-1-[5-(2′,5,6,6′-tetrafluoro[1,1′-biphenyl]-2-yl)-4,5-dihydro-1,2-oxazol-3-yl]pyrrolidin-3-yl}methanesulfonamide], 89%; that for `CS(=O)(=O)N[C@@H]1CN(C2=NOC(c3c(F)cccc3-c3c(F)cccc3F)C2)C[C@@H]1F` (stereo partly drawn) [Example 141, N-{(3R,4S)-4-fluoro-1-[5-(2′,3,6′-trifluoro[1,1′-biphenyl]-2-yl)-4,5-dihydro-1,2-oxazol-3-yl]pyrrolidin-3-yl}methanesulfonamide], 97%.
For `CS(=O)(=O)N[C@@H]1CN(C2=NOC(CO)(c3ncc(Cl)cc3-c3c(F)cccc3F)C2)CC1(F)F` (stereo partly drawn) [Example 142, N-[(3R)-1-{5-[5-chloro-3-(2,6-difluorophenyl)pyridin-2-yl]-5-(hydroxymethyl)-4,5-dihydro-1,2-oxazol-3-yl}-4,4-difluoropyrrolidin-3-yl]methanesulfonamide], the “OX2R agonist activity (3 μM, %)” value was 102%.
Regarding `CCS(=O)(=O)N[C@@H]1CN(C2=NOC(c3ncc(Cl)cc3-c3c(F)cccc3F)C2)CC1(F)F` (stereo partly drawn) [Example 143, N-[(3R)-1-{5-[5-chloro-3-(2,6-difluorophenyl)pyridin-2-yl]-4,5-dihydro-1,2-oxazol-3-yl}-4,4-difluoropyrrolidin-3-yl]ethanesulfonamide], the “OX2R agonist activity (3 μM, %)” value is 109%.
With `CS(=O)(=O)N[C@@H]1CN(C2=NOC(c3c(F)cc(F)cc3-c3c(F)cccc3F)C2)C[C@@H]1F` (stereo partly drawn) [Example 144, N-{(3R,4S)-4-fluoro-1-[5-(2′,3,5,6′-tetrafluoro[1,1′-biphenyl]-2-yl)-4,5-dihydro-1,2-oxazol-3-yl]pyrrolidin-3-yl}methanesulfonamide] the figure was 98%; with `Cc1cc(F)c(C2CC(N3C[C@@H](NS(C)(=O)=O)C(F)(F)C3)=NO2)c(-c2c(F)cc(F)cc2F)c1` (stereo partly drawn) [Example 145, N-{(3R)-4,4-difluoro-1-[5-(2′,3,4′,6′-tetrafluoro-5-methyl[1,1′-biphenyl]-2-yl)-4,5-dihydro-1,2-oxazol-3-yl]pyrrolidin-3-yl}methanesulfonamide], 105%; with `Cc1cc(F)c(C2CC(N3C[C@@H](NS(C)(=O)=O)C(F)(F)C3)=NO2)c(-c2c(F)cccc2F)c1` (stereo partly drawn) [Example 146, N-{(3R)-4,4-difluoro-1-[5-(2′,3,6′-trifluoro-5-methyl[1,1′-biphenyl]-2-yl)-4,5-dihydro-1,2-oxazol-3-yl]pyrrolidin-3-yl}methanesulfonamide], 102%.
The result for `CS(=O)(=O)N[C@@H]1CN(C2=NOC(CF)(c3ncc(F)cc3-c3c(F)cc(F)cc3F)C2)CC1(F)F` (stereo partly drawn) [Example 147, N-[(3R)-4,4-difluoro-1-{5-(fluoromethyl)-5-[5-fluoro-3-(2,4,6-trifluorophenyl)pyridin-2-yl]-4,5-dihydro-1,2-oxazol-3-yl}pyrrolidin-3-yl]methanesulfonamide] reads 98%; that for `O=S(=O)(CF)N[C@@H]1CN(C2=NOC(c3ncc(Cl)cc3-c3c(F)cccc3F)C2)CC1(F)F` (stereo partly drawn) [Example 148, N-[(3R)-1-{5-[5-chloro-3-(2,6-difluorophenyl)pyridin-2-yl]-4,5-dihydro-1,2-oxazol-3-yl}-4,4-difluoropyrrolidin-3-yl]-1-fluoromethanesulfonamide], 98%.
Regarding `CS(=O)(=O)N[C@@H]1CN(C2=NOC(CF)(c3ncccc3-c3c(F)cccc3F)C2)CC1(F)F` (stereo partly drawn) [Example 150, N-[(3R)-1-{5-[3-(2,6-difluorophenyl)pyridin-2-yl]-5-(fluoromethyl)-4,5-dihydro-1,2-oxazol-3-yl}-4,4-difluoropyrrolidin-3-yl]methanesulfonamide], the “OX2R agonist activity (3 μM, %)” value worked out at 95%.
The result for `CCS(=O)(=O)N[C@@H]1CN(C2=NOC(CF)(c3ncccc3-c3c(F)cccc3F)C2)CC1(F)F` (stereo partly drawn) [Example 151, N-[(3R)-1-{5-[3-(2,6-difluorophenyl)pyridin-2-yl]-5-(fluoromethyl)-4,5-dihydro-1,2-oxazol-3-yl}-4,4-difluoropyrrolidin-3-yl]ethanesulfonamide] reads 107%; that for `CC1(c2ncc(Cl)cc2-c2ncc(F)cc2F)CC(N2C[C@@H](NS(C)(=O)=O)C(F)(F)C2)=NO1` (stereo partly drawn) [Example 152, N-{(3R)-1-[5-(5′-chloro-3,5-difluoro[2,3′-bipyridin]-2′-yl)-5-methyl-4,5-dihydro-1,2-oxazol-3-yl]-4,4-difluoropyrrolidin-3-yl}methanesulfonamide], 107%.
As to `CS(=O)(=O)N[C@@H]1CN(C2=NOC(CF)(c3ncc(C(F)F)cc3-c3c(F)cccc3F)C2)CC1(F)F` (stereo partly drawn) [Example 153, N-[(3R)-1-{5-[5-(difluoromethyl)-3-(2,6-difluorophenyl)pyridin-2-yl]-5-(fluoromethyl)-4,5-dihydro-1,2-oxazol-3-yl}-4,4-difluoropyrrolidin-3-yl]methanesulfonamide], the “OX2R agonist activity (3 μM, %)” value was determined as 96%.
Turning to `Cc1cc(F)c(C2CC(N3C[C@@H](NS(C)(=O)=O)C(F)(F)C3)=NO2)c(-c2ncc(F)cc2F)c1` (stereo partly drawn) [Example 154, N-[(3R)-1-{5-[2-(3,5-difluoropyridin-2-yl)-6-fluoro-4-methylphenyl]-4,5-dihydro-1,2-oxazol-3-yl}-4,4-difluoropyrrolidin-3-yl]methanesulfonamide], the “OX2R agonist activity (3 μM, %)” value is reported as 102%.
With `CS(=O)(=O)N[C@@H]1CN(C2=NOC(c3c(F)cc(F)cc3-c3c(F)cccc3F)C2)CC1(F)F` (stereo partly drawn) [Example 156, N-{(3R)-4,4-difluoro-1-[5-(2′,3,5,6′-tetrafluoro[1,1′-biphenyl]-2-yl)-4,5-dihydro-1,2-oxazol-3-yl]pyrrolidin-3-yl}methanesulfonamide] the figure was 94%.
